In PubChem BioAssay (NCI) one finds TGI data, which are given here for eight compounds.

Among the test systems are A549 NSCLC; 786-0 renal; HCT-15 colon; OVCAR-4 ovarian; NCI-H460 lung; SF-268 CNS; K-562 leukemia; BT-549 breast; ACHN renal; NCI-H23 lung; LOX IMVI melanoma; HOP-62 NSCLC; OVCAR-3 ovarian; SNB-75 CNS; NCI-H226 lung; CCRF-CEM leukemia; A498 renal; MDA-N; RPMI-8226 leukemia; HL-60(TB) leukemia.
Common to all, as to experiment: DTP human tumour cell line panel, 48 h

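Each compound was tested at five concentrations against cells in 96-well plates for 48 hours. The concentration for full growth arrest is given as TGI.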

For the compound `Clc1sc(Cl)c2c1[C@H](Cl)C[C@@H]2Cl`, the total growth inhibition concentration (TGI) (in general, the concentration giving total growth inhibition) was 86.2 µM with A549 NSCLC; 48.9 µM in the test on 786-0 renal; 41.3 µM in the test with HCT-15 colon; 52.7 µM in the test on OVCAR-4 ovarian; more than 100 µM in the test with NCI-H460 lung; 44.3 µM with SF-268 CNS. The concentration for total growth inhibition (TGI) was more than 100 µM in the test on K-562 leukemia; 62.5 µM in the test on BT-549 breast; 95 µM in the test with ACHN renal; 50 µM in the test with NCI-H23 lung; 25.2 µM with LOX IMVI melanoma; more than 100 µM with HOP-62 NSCLC. Moreover, the TGI with OVCAR-3 ovarian is 70.9 µM; in the test with SNB-75 CNS, 64.7 µM; in the test with NCI-H226 lung, 39.8 µM; in the test on CCRF-CEM leukemia, more than 100 µM; with A498 renal, more than 100 µM; with MDA-N it was 64.5 µM.

For `COCn1cc(C2=C(C)C(=O)C(C)=C(C)C2=O)cn1`, the TGI in the test with A549 NSCLC was more than 100 µM; in the test with 786-0 renal, 32.2 µM; in the test with HCT-15 colon it was more than 100 µM; in the test on OVCAR-4 ovarian, 31.7 µM; with NCI-H460 lung, more than 100 µM; in the test on SF-268 CNS, 66 µM. Moreover, the TGI in the test on K-562 leukemia was 42.6 µM; in the test with ACHN renal, more than 100 µM; in the test on NCI-H23 lung, more than 100 µM; in the test on RPMI-8226 leukemia, 60.2 µM; in the test on HL-60(TB) leukemia, 24.3 µM; in the test on HOP-62 NSCLC, more than 100 µM. The total growth inhibition concentration (TGI) in the test on OVCAR-3 ovarian was 40 µM; with SNB-75 CNS, more than 100 µM; in the test on NCI-H226 lung it was more than 100 µM; in the test on CCRF-CEM leukemia it was 60.8 µM; in the test with A498 renal, more than 100 µM; in the test with MDA-N, more than 100 µM.

Consider `Clc1cccc(-c2nc3cccc4c3n2Cc2ncccc2-4)c1`, for which the TGI with A549 NSCLC, in the test with 786-0 renal, with HCT-15 colon, in the test with OVCAR-4 ovarian, in the test on NCI-H460 lung and with SF-268 CNS was more than 100 µM each time. Besides, the TGI with K-562 leukemia, in the test on BT-549 breast, in the test with ACHN renal, in the test with NCI-H23 lung, with HOP-62 NSCLC and in the test with OVCAR-3 ovarian was more than 100 µM in each case. The TGI in the test with SNB-75 CNS is 58.6 µM; in the test with NCI-H226 lung, more than 100 µM; in the test on CCRF-CEM leukemia it was more than 100 µM; with A498 renal, more than 100 µM; in the test on MDA-N, more than 100 µM.

`CNc1cc([N+](=O)[O-])ccc1C(=O)N1CCC[C@H]1CO`: the TGI with A549 NSCLC, in the test with 786-0 renal, in the test with HCT-15 colon, with NCI-H460 lung, with SF-268 CNS and with K-562 leukemia was more than 100 µM throughout. Moreover, the TGI in the test on ACHN renal, with RPMI-8226 leukemia, in the test with HL-60(TB) leukemia, in the test on LOX IMVI melanoma, with HOP-62 NSCLC and with OVCAR-3 ovarian was more than 100 µM throughout. Also, the TGI in the test with SNB-75 CNS, in the test on NCI-H226 lung, in the test with A498 renal and in the test on MDA-N was more than 100 µM each time.

For the compound `Cc1ccc(Sc2ccccc2C23OC(C)(C4C(=O)N(c5ccccc5)C(=O)C42)N(C)C3=O)cc1` (centres undefined), the concentration for total growth inhibition (TGI) in the test on A549 NSCLC, in the test with 786-0 renal, with HCT-15 colon, with OVCAR-4 ovarian, in the test with NCI-H460 lung and in the test on SF-268 CNS was more than 100 µM each time. Moreover, the TGI in the test on K-562 leukemia, in the test on BT-549 breast, in the test on ACHN renal, with NCI-H23 lung, in the test with HL-60(TB) leukemia and in the test on LOX IMVI melanoma was more than 100 µM throughout. The TGI in the test on OVCAR-3 ovarian, with SNB-75 CNS, with NCI-H226 lung, with CCRF-CEM leukemia, in the test with A498 renal and in the test on MDA-N was more than 100 µM in each case.

For the compound `C=C(COCO)C(C)=O`, the total growth inhibition concentration (TGI) in the test on A549 NSCLC was more than 64.7 µM; with 786-0 renal, 25.6 µM; with HCT-15 colon, 39.6 µM; in the test on OVCAR-4 ovarian it was 37.2 µM; in the test with NCI-H460 lung it was 48.2 µM; in the test on SF-268 CNS, 38 µM. For the same compound, the TGI in the test with K-562 leukemia was more than 27 µM; in the test on ACHN renal, 29.2 µM; in the test on NCI-H23 lung, 35.4 µM; in the test on RPMI-8226 leukemia, 5.64 µM; with HL-60(TB) leukemia it was 5.78 µM; in the test with LOX IMVI melanoma, 31.7 µM. For the same compound, the total growth inhibition concentration (TGI) in the test on HOP-62 NSCLC was more than 68.5 µM; in the test on OVCAR-3 ovarian, 26.6 µM; in the test on SNB-75 CNS, 30.5 µM; in the test with NCI-H226 lung it was more than 100 µM; with CCRF-CEM leukemia, 9.64 µM; in the test on A498 renal, 49 µM. The total growth inhibition concentration (TGI) in the test on MDA-N turned out to be 33.5 µM.

In the case of `CC[C@H](C)[C@@H]([C@@H](CC(=O)N1CCC[C@H]1[C@H](OC)[C@@H](C)C(=O)NCCc1ccccc1)OC)N(C)C(=O)C(NC(=O)[C@H](C(C)C)N(C)C)C(C)C` (some centres undefined), the TGI was 1.1 µM in the test with A549 NSCLC; 1.34 µM with 786-0 renal; more than 10 µM with HCT-15 colon; more than 10 µM in the test with OVCAR-4 ovarian; more than 10 µM with SF-268 CNS; more than 10 µM with K-562 leukemia. Moreover, the concentration for total growth inhibition (TGI) in the test on BT-549 breast was more than 10 µM; in the test on ACHN renal, more than 10 µM; with NCI-H23 lung it was more than 10 µM; with LOX IMVI melanoma it was more than 10 µM; in the test on HOP-62 NSCLC it was 3.02 µM; in the test with OVCAR-3 ovarian, 0.000544 µM. In addition, the TGI in the test with NCI-H226 lung was 0.00784 µM; in the test on A498 renal, more than 10 µM; in the test with MDA-N, 0.000164 µM.

Consider `COC(=O)[C@@H]1CN(C(=O)CCc2ccccc2)C(=O)N1`, for which the TGI in the test with A549 NSCLC, with 786-0 renal, in the test on HCT-15 colon, in the test on OVCAR-4 ovarian, in the test with NCI-H460 lung and in the test on SF-268 CNS was more than 100 µM each time. For the same compound, the TGI with K-562 leukemia, with ACHN renal, with NCI-H23 lung, in the test with RPMI-8226 leukemia, with HL-60(TB) leukemia and with LOX IMVI melanoma was more than 100 µM each time. Further, the TGI in the test with HOP-62 NSCLC, in the test with OVCAR-3 ovarian, in the test on NCI-H226 lung, with CCRF-CEM leukemia, in the test with A498 renal and in the test on MDA-N was more than 100 µM each time.
